Results reported in patent publication US20190100557A1, “PRO[…], A GENE TRANSFER ENHANCER” (Pharis Biotec GmbH, priority 2013, published 2019).
Non-standard residues stand in square brackets, D forms with d. Residues, ends and D or L forms follow the SMILES beside them. pGlu = O=C1CC[C@@H](C(=O)O)N1

Columns and labels:
[1] = Storage stability in aqueous solution followed by HPLC (FIG. 1); assay type: physicochemical; details: storage at 4° C. for 13 days, in vitro
Method: FIG. 1 is a high pressure liquid chromatography (HPLC) chromatogram of protransduzin A and protransduzin B.
In the left column of FIG. 1 (HPLC chromatogram), results for protransduzin A upon storage for 0-13 days at −20° C. and at 4° C. (13 days) are compared with the results for protransduzin B under the same conditions.

cells = assay: Transduction of cells with protransduzin B (vectors preincubated with peptide fibrils); assay type: cell-based; details: protransduzin B 25 μg/ml added to vectors, cells incubated 2 days
Method: Dissolve 0.5 mg of protransduzin B in 50 μl of DMSO. Then add 450 μl of PBS to the solution, fibrils forming within 3 min. Add this stock solution (1 mg/ml) to the vectors to obtain a concentration of protransduzin B of 25 μg/ml. Vortex the solution for 1 min, then centrifuge with 5000 g for 5 min. The supernatant is discarded, and the pellet is suspended in a little PBS and added to the cells. The cells are incubated in an incubator for 2 days.

## CC[C@H](C)[C@H](NC(=O)[C@H](CCCCN)NC(=O)[C@H](CS)NC(=O)[C@@H]1CCC(=O)N1)C(=O)N[C@@H](CCCCN)C(=O)N[C@@H](CCC(N)=O)C(=O)N[C@H](C(=O)N[C@H](C(=O)N[C@@H](CC(N)=O)C(=O)N[C@@H](CCSC)C(=O)N[C@@H](Cc1c[nH]c2ccccc12)C(=O)N[C@@H](CCC(N)=O)C(=O)O)[C@@H](C)CC)[C@@H](C)CC [protransduzin B] ([pGlu]CKIKQIINMWQ-OH)
[1]
  degradation upon storage (HPLC peak height): hardly degraded at all
cells
  cells transduced: Up to 96%
  transduction rate: significantly enhanced
